# Laboratory results published in US6812225B2, “Therapeutic heterocyclic compounds” (AstraZeneca AB, priority 2001, dated 2004).
# Legend:
# guinea pigs = assay: Learned helplessness test; format: in vivo, guinea pig; details: antidepressant/antianxiety activity
# Text: The utility of the compounds for example to treat depression may be shown via a learned helplessness test in guinea pigs, which is used extensively as correlative to antidepressant activity in humans. The learned helplessness test may be carried out as follows: Seventy male Hartley guinea pigs, each weighing about 350-425 gm are fed ad lib, and are housed under a 12-hour light/dark cycle. The procedure consists of two phases: The induction phase and the avoidance training phase. In the induction phase, subjects are placed into standard shuttle cages (20 L×16 W×21 centimeters H) which are fitted with a grid floor. Electrical stimulation (1.25 mA, 10 sec duration) is delivered to the floor of the cage every 90-sec during 1 hour daily sessions. Subjects have no opportunity to escape or to avoid shocks. Induction is conducted for 2 consecutive days.
# In avoidance training, testing is also conducted in the shuttle cages, except that the subjects are not returned to the same chamber in which induction had occurred. Additionally, all cages are fitted with a partition with an arch in the center of the cage, through which animals can pass between the left and right halves of the cage. The procedure employed is a standard shuttle avoidance procedure in which a compound, conditioned stimulus (a 10-sec presentation of a tone and turning on of a lamp on the side of the cage that the guinea pig was occupying) serves to indicate presentation of electrical current to the floor of the cage. Shock is presented for a 5 sec period, 5 sec after initiation of the conditioned stimulus. Entry into the opposite side of the shuttle cage via the arched partition prior to shock onset results in the end of the trial (avoidance response). If shock is delivered, entry into the opposite side of the cage results in termination of the shock and CS (escape). Reversal of learned helplessness in the induction subjects correlates to antidepressant activity of the test compound.
# Avoidance training, 45-min in duration, is conducted on 2 consecutive days, beginning 48 hr after the final induction session. Seventy subjects are assigned to 1 of 6 groups of 11-12 animals. The groups are as follows:
# Groups 2-6 are given induction and avoidance training sessions. Injections are administered immediately following induction sessions and 1 hour prior to avoidance training sessions. A second injection is administered 7-8 hours following the first injection, for a total of 9 injections administered over 5 days. No injections are administered following the final avoidance training session.
# Compounds of the present invention may be administered in a volume of 1 ml/kg bwt. Imipramine is dissolved in DI water. The compounds are dissolved in DI water, to which was added a few drops of lactic acid (pH 5.5). […]
# [1] = target: 5-HT1B and 5HT1D receptors; details: saturation studies, guinea pig cortex; read-out: Kd value of [3H]GR125743; cited from earlier work
SMILES,melting point,activity in the learned helplessness assay (guinea pigs),Kd [1]
"CN1CCN(c2cccc3c(=O)cc(C(=O)N(C)c4ccc(N5CCOCC5)cc4)oc23)CC1 [Example 25, 8-(4-Methylpiperazin-1-yl)-4-oxo-4H-chromene-2-carboxylic acid methyl-(4-morpholin-4-yl-phenyl)amide]",245 to 246.8 °C,,
"COc1cc(N2CCN(C)CC2)c2oc(C(=O)Nc3ccc(N4CCOCC4)cc3)cc(=O)c2c1 [Example 31, 6-Methoxy-8-(4-methyl-piperazin-1-yl)-4-oxo-4H-chromene-2-carboxylic acid (4-morpholin-4-yl-phenyl)-amide]",234 to 236 °C,demonstrate activity,
"CN1CCN(c2cccc3c2OC(C(=O)Nc2ccc(N4CCOCC4)cc2)CC3)CC1 (single isomer, unassigned; (-)) [Example 77, (−)-8-(4-Methyl-piperazin-1-yl)-chroman-2-carboxylic acid (4-morpholin-4-yl-phenyl)-amide]",205.5 to 207 °C,,
"CN1CCN(c2cccc3c2OC(C(=O)Nc2ccc(N4CCOCC4)cc2)CC3=O)CC1 (single isomer, unassigned) [Example 79, 8-(4-Methyl-piperazin-1-yl)-4-oxo-chroman-2-carboxylic acid (4-morpholin-4-yl-phenyl)-amide]",216 °C (dec.),,
"CN1CCN(c2cccc3c2OC(C(=O)Nc2ccc(N4CCOCC4)cc2)CC3)CC1 (single isomer, unassigned; (+)) [Example 76, (+)-8-(41-Methyl-piperazin-1-yl)-chroman-2-carboxylic acid (4-morpholin-4-yl-phenyl)-amide]",206 to 207 °C,,
"CN1CCN(c2cccc3c2OC(C(=O)Nc2ccc(N4CCOCC4)cc2)CC3=O)CC1 (racemic) [Example 78, racemic-8-(4-methyl-piperazin-1-yl)-4-oxo-chroman-2-carboxylic acid (4-morpholin-4-yl-phenyl)-amide]",215 to 216 °C,,
"CN1CCN(c2cccc3c2OC(C(=O)Nc2ccc(N4CCOCC4)cc2)CC3=O)CC1 (single isomer, unassigned) [Example 80, 8-(4-Methyl-piperazin-1-yl)-4-oxo-chroman-2-carboxylic acid (4-morpholin-4-yl-phenyl)-amide]",215 °C (dec.),,
CCS(=O)(=O)N1CCN(c2ccc(NC(=O)c3cc(=O)c4cc(F)cc(N5CCN(C)CC5)c4o3)cc2)CC1 [Example 71],233 to 234 °C,demonstrate activity,
"CCNC(=O)N1CCN(c2ccc(NC(=O)c3cc(=O)c4cc(F)cc(N5CCN(C)CC5)c4o3)cc2)CC1 [Example 81, 4-[4-({1-[6-Fluoro-8-(4-methyl-piperazin-1-yl)-4-oxo-4H-chromen-2-yl]-methanoyl}-amino)-phenyl]-piperazine-1-carboxylic acid ethylamide]",236 to 238 °C,,
"CN1CCN(c2cccc3c(=O)cc(-c4nc5ccc(N6CCOCC6)cc5o4)oc23)CC1 [Example 21, 8-(4-Methyl-piperazin-1-yl)-2-(6-morpholin-4-yl-benzooxazol-2-yl)-chromen-4-one]",158.1 to 158.8 °C,,
"CCC(=O)N1CCN(c2ccc(NC(=O)c3cc(=O)c4cc(OC)cc(N5CCN(C)CC5)c4o3)cc2)CC1 [Example 44, 6-Methoxy-8-(4-methyl-piperazin-1-yl)-4-oxo-4H-chromene-2-carboxylic acid [4-(4-propionyl-piperazin-1-yl)-phenyl]-amide]",,demonstrate activity,
"CN1CCN(c2cc(F)cc3c(=O)cc(C(=O)Nc4ccc(N5CCN(C(=O)CCO)CC5)cc4)oc23)CC1 [Example 73, 6-Fluoro-8-(4-methyl-piperazin-1-yl)-4-oxo-4H-chromene-2-carboxylic acid {4-[4-(3-hydroxy-propanoyl)-piperazin-1-yl]-phenyl}-amide]",195 to 199 °C,,
"CCC(=O)N1CCN(c2ccc(NC(=O)c3cc(=O)c4cc(F)cc(N5CCN(C)CC5)c4o3)cc2)CC1 [Example 72, 6-flouro-8-(4-methyl-piperazin-1-yl)-4-oxo-4H-chromene-2-carboxylic acid [4-(4-propionyl-piperazin-1-yl)-phenyl]-amide]",244 to 245 °C,demonstrate activity,
"CN1CCN(c2cccc3c(=O)cc(C(=O)Nc4ccc(N5CCOCC5)cc4)oc23)CC1 [Example 1, 8-(4-methyl-1-piperazinyl)-N-[4-(4-morpholinyl)phenyl]-4-oxo-4H-chromene-2-carboxamide]",217 to 218 °C (dec.),,
"COc1cc(N2CCN(C)CC2)c2oc(C(=O)Nc3ccc(N4CCN(C(=O)CCO)CC4)cc3)cc(=O)c2c1 [Example 68, 6-Methoxy-8-(4-methyl-piperazin-1-yl)-4-oxo-4H-chromene-2-carboxylic acid {4-[4-(3-hydroxy-propanoyl)-piperazin-1-yl]-phenyl}-amide]",195 to 197 °C,,
"CN1CCN(c2cccc3c2OC(C(=O)Nc2ccc(N4CCOCC4)cc2)CC3)CC1 (racemic) [Example 75, racemic-8-(4-Methyl-piperazin-1-yl)-chroman-2-carboxylic acid (4-morpholin-4-yl-phenyl)-amide]",215 to 216 °C,,
"CN1CCN(c2cccc3c(=O)cc(C(=O)Nc4ccc(N5CCOCC5)cc4O)oc23)CC1 [Example 22, 8-(4-Methyl-piperazin-1-yl)-4-oxo-4H-chromene-2-carboxylic acid (2-hydroxy-4-morpholin-4-yl-phenyl)-amide]",248.4 to 249.6 °C,,
"CCS(=O)(=O)N1CCN(c2ccc(NC(=O)c3cc(=O)c4cc(OC)cc(N5CCN(C)CC5)c4o3)cc2)CC1 [Example 45, 6-Methoxy-8-(4-methyl-piperazin-1-yl)-4-oxo-4H-chromene-2-carboxylic acid [4-(4-ethanesulfonyl-piperazin-1-yl)-phenyl]-amide]",232 to 234 °C,,
COc1ccc(NC(=O)c2ccc(-c3ccncc3)c(C)c2)cc1N1CCN(C)CC1 [[^3H]-GR125743],,,0.046 ± 0.004 nM
